Measurements taken from PubChem BioAssay (NCI).
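All cell lines were grown in 96-well plates and treated with compound for 48 hours. Here, GI50 denotes the concentration required for 50% inhibition of growth. Definition used: TGI = concentration required for complete inhibition of growth.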

Assays:
Assay in all cases: DTP human tumour cell line panel, 48 h
SNB-75 CNS = system: SNB-75 CNS
A549 NSCLC = system: A549 NSCLC
SR leukemia = system: SR leukemia
HCC-2998 colon = system: HCC-2998 colon
HCT-15 colon = system: HCT-15 colon
MDA-MB-231 breast = system: MDA-MB-231 breast
SK-MEL-28 melanoma = system: SK-MEL-28 melanoma
SF-268 CNS = system: SF-268 CNS
BT-549 breast = system: BT-549 breast
COLO 205 colon = system: COLO 205 colon
MCF7 breast = system: MCF7 breast
NCI-H460 lung = system: NCI-H460 lung
NCI-H226 lung = system: NCI-H226 lung
HOP-62 NSCLC = system: HOP-62 NSCLC
MDA-MB-435 = system: MDA-MB-435
SK-MEL-2 melanoma = system: SK-MEL-2 melanoma
SW-620 colon = system: SW-620 colon
CAKI-1 renal = system: CAKI-1 renal
OVCAR-3 ovarian = system: OVCAR-3 ovarian
MOLT-4 leukemia = system: MOLT-4 leukemia
CCRF-CEM leukemia = system: CCRF-CEM leukemia
OVCAR-4 ovarian = system: OVCAR-4 ovarian
ACHN renal = system: ACHN renal
TK-10 renal = system: TK-10 renal
IGROV1 ovarian = system: IGROV1 ovarian
SNB-19 CNS = system: SNB-19 CNS
EKVX NSCLC = system: EKVX NSCLC
SF-539 CNS = system: SF-539 CNS
LOX IMVI melanoma = system: LOX IMVI melanoma
A498 renal = system: A498 renal
HL-60(TB) leukemia = system: HL-60(TB) leukemia
SF-295 CNS = system: SF-295 CNS
UACC-62 melanoma = system: UACC-62 melanoma
HOP-92 NSCLC = system: HOP-92 NSCLC
DU-145 prostate = system: DU-145 prostate
OVCAR-5 ovarian = system: OVCAR-5 ovarian
M14 melanoma = system: M14 melanoma
NCI-H23 lung = system: NCI-H23 lung
UACC-257 melanoma = system: UACC-257 melanoma
UO-31 renal = system: UO-31 renal
NCI-H522 lung = system: NCI-H522 lung
K-562 leukemia = system: K-562 leukemia
KM12 colon = system: KM12 colon
HT29 colon = system: HT29 colon
SN12C renal = system: SN12C renal
HS 578T breast = system: HS 578T breast
NCI/ADR-RES ovarian = system: NCI/ADR-RES ovarian
OVCAR-8 ovarian = system: OVCAR-8 ovarian
786-0 renal = system: 786-0 renal
U251 CNS = system: U251 CNS
T-47D breast = system: T-47D breast
SK-MEL-5 melanoma = system: SK-MEL-5 melanoma
HCT-116 colon = system: HCT-116 colon
PC-3 prostate = system: PC-3 prostate
MALME-3M melanoma = system: MALME-3M melanoma
RXF 393 renal = system: RXF 393 renal
SK-OV-3 ovarian = system: SK-OV-3 ovarian
RPMI-8226 leukemia = system: RPMI-8226 leukemia

`CC(C)(C)[Si](C)(C)OC1[C@@H](O[Si](C)(C)C(C)(C)C)[C@@H](CNC(=O)NC(=O)NC(=O)CCl)O[C@H]1n1cnc2c(NC(=O)Nc3ccccc3)ncnc21` (stereo partly specified) showed a GI50 (SNB-75 CNS) of 5.84 µM, a TGI (SNB-75 CNS) of 13.9 µM and a GI50 (A549 NSCLC) of 2.26 µM. The TGI (A549 NSCLC) was 8.92 µM, the GI50 (SR leukemia) was 0.226 µM and the TGI (SR leukemia) was 0.81 µM. It also gave a GI50 (HCC-2998 colon) of 8.74 µM, a TGI (HCC-2998 colon) of 18.6 µM and a GI50 (HCT-15 colon) of 9.28 µM. It also gave a TGI (HCT-15 colon) of 22.2 µM, a GI50 (MDA-MB-231 breast) of 1.31 µM and a TGI (MDA-MB-231 breast) of 3.76 µM. The GI50 (SK-MEL-28 melanoma) was 8.78 µM, the TGI (SK-MEL-28 melanoma) was 17.8 µM and the GI50 (SF-268 CNS) was 4.51 µM. It also gave a TGI (SF-268 CNS) of 14 µM, a GI50 (BT-549 breast) of 6.57 µM and a TGI (BT-549 breast) of 13.1 µM. The GI50 (COLO 205 colon) was 6.3 µM, the TGI (COLO 205 colon) was 13 µM and the GI50 (MCF7 breast) was 3.76 µM. For the same molecule, the TGI (MCF7 breast) was 11.9 µM, the GI50 (NCI-H460 lung) was 2.23 µM and the TGI (NCI-H460 lung) was 12.1 µM. The GI50 (NCI-H226 lung) was 8.67 µM, the TGI (NCI-H226 lung) was 15.9 µM and the GI50 (HOP-62 NSCLC) was 1.66 µM. The TGI (HOP-62 NSCLC) was 4.8 µM, the GI50 (MDA-MB-435) was 6.61 µM and the TGI (MDA-MB-435) was 17.6 µM. The GI50 (SK-MEL-2 melanoma) was 8.62 µM, the TGI (SK-MEL-2 melanoma) was 17.6 µM and the GI50 (SW-620 colon) was 3.52 µM. The TGI (SW-620 colon) was 11.6 µM, the GI50 (CAKI-1 renal) was 2.2 µM and the TGI (CAKI-1 renal) was 9.42 µM. The GI50 (OVCAR-3 ovarian) was 1.82 µM, the TGI (OVCAR-3 ovarian) was 4.87 µM and the GI50 (MOLT-4 leukemia) was 1.17 µM. It also gave a TGI (MOLT-4 leukemia) of 2.53 µM, a GI50 (CCRF-CEM leukemia) of 0.127 µM and a TGI (CCRF-CEM leukemia) of 0.334 µM. It also gave a GI50 (OVCAR-4 ovarian) of 3.31 µM, a TGI (OVCAR-4 ovarian) of 10.5 µM and a GI50 (ACHN renal) of 5.03 µM. The TGI (ACHN renal) was 12.2 µM, the GI50 (TK-10 renal) was 2.42 µM and the TGI (TK-10 renal) was 7.81 µM. The GI50 (IGROV1 ovarian) was 0.361 µM, the TGI (IGROV1 ovarian) was 1.33 µM and the GI50 (SNB-19 CNS) was 15.7 µM. It also gave a TGI (SNB-19 CNS) of 48.6 µM, a GI50 (EKVX NSCLC) of 1.69 µM and a TGI (EKVX NSCLC) of 6.54 µM. The GI50 (SF-539 CNS) was 8.82 µM, the TGI (SF-539 CNS) was 16.1 µM and the GI50 (LOX IMVI melanoma) was 0.236 µM. The TGI (LOX IMVI melanoma) was 0.52 µM, the GI50 (A498 renal) was 6.46 µM and the TGI (A498 renal) was 13.3 µM. For the same molecule, the GI50 (HL-60(TB) leukemia) was 1.45 µM, the TGI (HL-60(TB) leukemia) was 3.22 µM and the GI50 (SF-295 CNS) was 4.91 µM. The TGI (SF-295 CNS) was 15 µM, the GI50 (UACC-62 melanoma) was 8.41 µM and the TGI (UACC-62 melanoma) was 18.6 µM. It also gave a GI50 (HOP-92 NSCLC) of 0.842 µM, a TGI (HOP-92 NSCLC) of 1.98 µM and a GI50 (DU-145 prostate) of 7.88 µM. For the same molecule, the TGI (DU-145 prostate) was 16.4 µM, the GI50 (OVCAR-5 ovarian) was 6.41 µM and the TGI (OVCAR-5 ovarian) was 14.1 µM. The GI50 (M14 melanoma) was 5.34 µM, the TGI (M14 melanoma) was 11.8 µM and the GI50 (NCI-H23 lung) was 1.57 µM. For the same molecule, the TGI (NCI-H23 lung) was 6.59 µM, the GI50 (UACC-257 melanoma) was 5.64 µM and the TGI (UACC-257 melanoma) was 13.2 µM. The GI50 (UO-31 renal) was 0.959 µM, the TGI (UO-31 renal) was 1.89 µM and the GI50 (NCI-H522 lung) was 0.282 µM. For the same molecule, the TGI (NCI-H522 lung) was 0.572 µM, the GI50 (K-562 leukemia) was 2.56 µM and the TGI (K-562 leukemia) was 7.51 µM. It also gave a GI50 (KM12 colon) of 1.84 µM, a TGI (KM12 colon) of 6.12 µM and a GI50 (HT29 colon) of 1.43 µM. It also gave a TGI (HT29 colon) of 3.67 µM, a GI50 (SN12C renal) of 3.69 µM and a TGI (SN12C renal) of 10.6 µM. The GI50 (HS 578T breast) was 4.52 µM, the TGI (HS 578T breast) was 20.6 µM and the GI50 (NCI/ADR-RES ovarian) was 6.45 µM. The TGI (NCI/ADR-RES ovarian) was 15.9 µM, the GI50 (OVCAR-8 ovarian) was 0.955 µM and the TGI (OVCAR-8 ovarian) was 3.77 µM. For the same molecule, the GI50 (786-0 renal) was 1.3 µM, the TGI (786-0 renal) was 4.76 µM and the GI50 (U251 CNS) was 1.56 µM. It also gave a TGI (U251 CNS) of 4.22 µM, a GI50 (T-47D breast) of 8.59 µM and a TGI (T-47D breast) of 17.5 µM. The GI50 (SK-MEL-5 melanoma) was 8.21 µM, the TGI (SK-MEL-5 melanoma) was 15 µM and the GI50 (HCT-116 colon) was 1.85 µM. It also gave a TGI (HCT-116 colon) of 7.41 µM, a GI50 (PC-3 prostate) of 1.1 µM and a TGI (PC-3 prostate) of 3.93 µM. The GI50 (MALME-3M melanoma) was 1.34 µM, the TGI (MALME-3M melanoma) was 3.64 µM and the GI50 (RXF 393 renal) was 2.13 µM. It also gave a TGI (RXF 393 renal) of 6.88 µM, a GI50 (SK-OV-3 ovarian) of 9.51 µM and a TGI (SK-OV-3 ovarian) of 17.5 µM. It also gave a GI50 (RPMI-8226 leukemia) of 1.56 µM and a TGI (RPMI-8226 leukemia) of 5.95 µM.
